One data set deals with T1, human EGF-R (Homo sapiens, UniProt P00533).
T1 construct: expressed in transfected cells; host or cells: F/L-HERc (murine IL-3-dependent FDC-P1 cells transduced with retroviral vector LXSN carrying the human EGF-R cDNA; packaging line GP+E86)
The data set is described as follows: Inhibition of EGF-dependent proliferation of F/L-HERc cells. To be noted: F/L-HERc cells (murine IL-3-dependent line expressing human EGF-R), stimulated with EGF 20 ng/ml, 48 hours, Cell Titer 96 AQueous assay. The class given is cell-based. An excerpt: A cell line of murine origin dependent on interleukin-3-(IL-3) which was genetically modified to express functional human EGF-R was used here. The proliferation of these cells known as F/L-HERc can therefore be stimulated either by murine IL-3 or by EGF (cf. von Rüden, T. et al. in EMBO J. 7, 2749-2756 (1988) and Pierce, J. H. et al. in Science 239, 628-631 (1988)).
The starting material used for the F/L-HERc cells was the cell line FDC-P1, the production of which has been described by Dexter, T. M. et al. in J. Exp. Med. 152, 1036-1047 (1980). Alternatively, however, other growth-factor-dependent cells may also be used (cf. for example Pierce, J. H. et al. in Science 239, 628-631 (1988), Shibuya, H. et al. in Cell 70, 57-67 (1992) and Alexander, W. S. et al. in EMBO J. 10, 3683-3691 (1991)). For expressing the human EGF-R cDNA (cf. Ullrich, A. et al. in Nature 309, 418-425 (1984)) recombinant retroviruses were used as described by von Rüden, T. et al., EMBO J. 7, 2749-2756 (1988), except that the retroviral vector LXSN (cf. Miller, A. D. et al. in BioTechniques 7, 980-990 (1989)) was used for the expression of the EGF-R cDNA and the line GP+E86 (cf. Markowitz, D. et al. in J. Virol. 62, 1120-1124 (1988)) was used as the packaging cell.
The test was performed as follows:
F/L-HERc cells were cultivated in RPMI/1640 medium (BioWhittaker), supplemented with 10% foetal calf serum (FCS, Boehringer Mannheim), 2 mM glutamine (BioWhittaker), standard antibiotics and 20 ng/ml of human EGF (Promega), at 37° C. and 5% CO2. In order to investigate the inhibitory activity of the compounds according to the invention, 1.5×10^4 cells per well were cultivated in triplicate in 96-well dishes in the above medium (200 μl), the cell proliferation being stimulated with either EGF (20 ng/ml) or murine IL-3. The IL-3 used was obtained from culture supernatants of the cell line X63/0 mIL-3 (cf. Karasuyama, H. et al. in Eur. J. Immunol. 18, 97-104 (1988)). The compounds according to the invention were dissolved in 100% dimethylsulphoxide (DMSO) and added to the cultures in various dilutions, the maximum DMSO concentration being 1%. The cultures were incubated for 48 hours at 37° C.
In order to determine the inhibitory activity of the compounds according to the invention the relative cell number was measured in O.D. units using the Cell Titer 96™ AQueous Non-Radioactive Cell Proliferation Assay (Promega). The relative cell number was calculated as a percentage of the control (F/LHERc cells without inhibitor) and the concentration of active substance which inhibits the proliferation of the cells by 50% (IC50) was derived therefrom.

T1 sequence (P00533 25-1210): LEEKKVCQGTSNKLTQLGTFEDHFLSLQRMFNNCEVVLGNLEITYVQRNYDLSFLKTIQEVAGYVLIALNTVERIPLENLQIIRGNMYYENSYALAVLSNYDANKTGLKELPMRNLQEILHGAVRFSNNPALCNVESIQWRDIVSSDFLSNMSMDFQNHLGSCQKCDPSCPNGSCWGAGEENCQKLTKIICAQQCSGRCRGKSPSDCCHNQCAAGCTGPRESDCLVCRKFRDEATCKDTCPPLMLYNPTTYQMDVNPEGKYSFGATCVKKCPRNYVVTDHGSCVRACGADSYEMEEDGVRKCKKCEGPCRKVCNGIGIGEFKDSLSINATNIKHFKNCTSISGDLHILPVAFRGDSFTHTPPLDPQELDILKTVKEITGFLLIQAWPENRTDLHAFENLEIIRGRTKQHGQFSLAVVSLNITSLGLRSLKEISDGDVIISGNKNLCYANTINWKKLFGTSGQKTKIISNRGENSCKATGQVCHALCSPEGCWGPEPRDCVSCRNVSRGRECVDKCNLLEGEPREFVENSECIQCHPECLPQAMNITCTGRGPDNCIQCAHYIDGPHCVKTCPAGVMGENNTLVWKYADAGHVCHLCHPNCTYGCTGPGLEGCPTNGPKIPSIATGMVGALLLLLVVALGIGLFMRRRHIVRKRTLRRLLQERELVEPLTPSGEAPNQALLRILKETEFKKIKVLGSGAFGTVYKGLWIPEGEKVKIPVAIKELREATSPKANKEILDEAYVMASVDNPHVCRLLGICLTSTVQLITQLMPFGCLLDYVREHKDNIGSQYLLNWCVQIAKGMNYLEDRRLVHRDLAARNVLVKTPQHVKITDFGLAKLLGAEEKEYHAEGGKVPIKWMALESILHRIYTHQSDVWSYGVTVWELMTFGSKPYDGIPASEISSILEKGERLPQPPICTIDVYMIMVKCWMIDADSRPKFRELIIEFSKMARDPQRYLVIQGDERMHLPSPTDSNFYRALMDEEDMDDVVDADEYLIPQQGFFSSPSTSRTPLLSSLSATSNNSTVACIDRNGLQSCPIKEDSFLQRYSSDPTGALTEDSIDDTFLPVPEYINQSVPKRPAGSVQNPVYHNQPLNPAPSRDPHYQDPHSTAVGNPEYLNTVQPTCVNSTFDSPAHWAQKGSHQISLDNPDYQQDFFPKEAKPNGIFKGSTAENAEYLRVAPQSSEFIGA

Usually IC50 stands for the concentration needed to halve the response being measured. A lower IC50 goes with greater potency. The molecule `CC1(C)CN(CCOc2cc3ncnc(Nc4ccc(F)c(Cl)c4)c3cc2OCC2CC2)CC(=O)O1` [1(1), 4-[(3-Chloro-4-fluorophenyl)amino]-6-cyclopropylmethoxy-7-[2-(6,6-dimethyl-2-oxo-morpholin-4-yl)-ethoxy]-quinazoline] gave an IC50 against human EGF-R of 29 nM.

As usually defined, the melting point is the temperature, or range, at which the solid turns liquid. For the molecule `CC1(C)CN(CCCOc2cc3c(Nc4ccc(F)c(Cl)c4)ncnc3cc2OC2CCC2)CC(=O)O1` [1(2), 4-[(3-Chloro-4-fluorophenyl)amino]-7-cyclobutyloxy-6-[3-(6,6-dimethyl-2-oxo-morpholin-4-yl)-propyloxy]-quinazoline], the melting point was in the range of 212 to 214 °C. Besides, at human EGF-R, the midpoint of inhibition, the IC50, lay at 29 nM.

In turn, `CN(CCOc1cc2ncnc(Nc3ccc(F)c(Cl)c3)c2cc1OC1CCCC1)C1COC(=O)C1` (centres unmarked) [2(1), 4-[(3-Chloro-4-fluorophenyl)amino]-6-cyclopentyloxy-7-{2-[N-(2-oxo-tetrahydrofuran-4-yl)-N-methyl-amino]-ethoxy}-quinazoline] registered an IC50 against human EGF-R of 36 nM.

The molecule `COc1cc2ncnc(Nc3ccc(F)c(Cl)c3)c2cc1OCCN1CC(=O)O[C@@H](C)C1` [3(25), 4-[(3-Chloro-4-fluorophenyl)amino]-6-[2-((S)-6-methyl-2-oxo-morpholin-4-yl)-ethoxy]-7-methoxy-quinazoline] came in with a melting point of 212 to 213 °C.

Regarding `CC1(C)CN(CCOc2cc3ncnc(Nc4ccc(F)c(Cl)c4)c3cc2OCC2CCCC2)CC(=O)O1` [Example 1, 4-[(3-Chloro-4-fluorophenyl)amino]-6-cyclopentylmethoxy-7-[2-(6,6-dimethyl-2-oxo-morpholin-4-yl)-ethoxy]-quinazoline], at human EGF-R, the 50% inhibitory concentration (IC50) is 59 nM.

In turn, `CN(CCCOc1cc2c(Nc3ccc(F)c(Cl)c3)ncnc2cc1OC1CCC1)C1COC(=O)C1` (centres unmarked) [Example 2(2), 4-[(3-Chloro-4-fluorophenyl)amino]-6-{3-[N-(2-oxo-tetrahydrofuran-4-yl)-N-methyl-amino]-propyloxy}-7-cyclobutyloxy-quinazoline] yielded a melting point of 147.5 to 151 °C.

As to `COc1cc2ncnc(Nc3cccc(Br)c3)c2cc1OCCN1CC(=O)O[C@H](C)C1` [Example 3(1), 4-[(3-Bromo-phenyl)amino]-6-[2-((R)-6-methyl-2-oxo-morpholin-4-yl)-ethoxy]-7-methoxy-quinazoline], the melting point was 193 °C.

As for `COc1cc2ncnc(Nc3ccc(F)c(Cl)c3)c2cc1OCCN1CC(=O)O[C@H](C)C1` [Example 3(2), 4-[(3-Chloro-4-fluorophenyl)amino]-6-[2-((R)-6-methyl-2-oxo-morpholin-4-yl)-ethoxy]-7-methoxy-quinazoline], the melting point turned out to be 208 °C.

In the case of `C[C@@H]1CN(CCCOc2cc3c(Nc4ccc(F)c(Cl)c4)ncnc3cc2OC2CCC2)CC(=O)O1` [Example 3(6), 4-[(3-Chloro-4-fluorophenyl)amino]-6-[3-((R)-6-methyl-2-oxo-morpholin-4-yl)-propyloxy]-7-cyclobutyloxy-quinazoline], the melting point was in the range of 185.5 to 189.5 °C.

Consider `CC1(C)COC(=O)CN1CCCOc1cc2c(Nc3ccc(F)c(Cl)c3)ncnc2cc1OC1CCC1` [Example 3(7), 4-[(3-Chloro-4-fluorophenyl)amino]-6-[3-(5,5-dimethyl-2-oxo-morpholin-4-yl)-propyloxy]-7-cyclobutyloxy-quinazoline], for which the melting point was 214 to 216 °C.

On to `C[C@@H]1CN(CCCOc2cc3c(Nc4ccc(F)c(Cl)c4)ncnc3cc2OCC2CC2)CC(=O)O1` [Example 3(8), 4-[(3-Chloro-4-fluorophenyl)amino]-6-[3-((R)-6-methyl-2-oxo-morpholin-4-yl)-propyloxy]-7-cyclopropylmethoxy-quinazoline], for which the melting point was 160.5 to 163 °C.

Consider `C[C@H]1CN(CCCOc2cc3c(Nc4ccc(F)c(Cl)c4)ncnc3cc2OCC2CC2)CC(=O)O1` [Example 3(9), 4-[(3-Chloro-4-fluorophenyl)amino]-6-[3-((S)-6-methyl-2-oxo-morpholin-4-yl)-propyloxy]-7-cyclopropylmethoxy-quinazoline], for which the melting point fell in the range of 160 to 162 °C.

As for `C[C@@H]1CN(CCOc2cc3c(Nc4ccc(F)c(Cl)c4)ncnc3cc2OC2CCCC2)CC(=O)O1` [Example 3(11), 4-[(3-Chloro-4-fluorophenyl)amino]-6-[2-((R)-6-methyl-2-oxo-morpholin-4-yl)-ethoxy]-7-cyclopentyloxy-quinazoline], the melting point is 176 to 178 °C.

`COc1cc2ncnc(Nc3ccc(F)c(Cl)c3)c2cc1OCCCN1CC(=O)O[C@@H](C)C1` [Example 3(23), 4-[(3-Chloro-4-fluorophenyl)amino]-6-[3-((S)-6-methyl-2-oxo-morpholin-4-yl)-propyloxy]-7-methoxy-quinazoline] showed a melting point of 183 to 186 °C.

In the case of `COc1cc2ncnc(Nc3ccc(F)c(Cl)c3)c2cc1OCCN(CC(=O)O)C[C@H](C)O` [Example 3(26), 4-[(3-Chloro-4-fluorophenyl)amino]-6-{2-[N-(carboxymethyl)-N-((S)-2-hydroxy-propyl)-amino]-ethoxy}-7-methoxy-quinazoline], the melting point lay in the range of 187 to 190 °C.

In turn, `COc1cc2ncnc(Nc3ccc(F)c(Cl)c3)c2cc1OCCN1CC(=O)OC(C)(C)C1` [Example 3(27), 4-[(3-Chloro-4-fluorophenyl)amino]-6-[2-(6,6-dimethyl-2-oxo-morpholin-4-yl)-ethoxy]-7-methoxy-quinazoline] came in with a melting point of 229 to 232 °C.

Take `CC1(C)CN(CCOc2cc3c(Nc4ccc(F)c(Cl)c4)ncnc3cc2O[C@@H]2CCOC2)CC(=O)O1` [Example 3(28), 4-[(3-chloro-4-fluorophenyl)amino]-6-[2-(6,6-dimethyl-2-oxo-morpholin-4-yl)-ethoxy]-7-((R)-tetrahydrofuran-3-yloxy)-quinazoline]: the melting point fell in the range of 195 to 196 °C.

The molecule `CC1(C)CN(CCOc2cc3c(Nc4ccc(F)c(Cl)c4)ncnc3cc2OC[C@H]2CCCO2)CC(=O)O1` [Example 3(29), 4-[(3-chloro-4-fluorophenyl)amino]-6-[2-(6,6-dimethyl-2-oxo-morpholin-4-yl)-ethoxy]-7-[(R)-(tetrahydrofuran-2-yl)methoxy]-quinazoline] came in with a melting point of 184 °C.

In turn, `CC1(C)CN(CCOc2cc3ncnc(Nc4ccc(F)c(Cl)c4)c3cc2O[C@H]2CCOC2)CC(=O)O1` [Example 3(30), 4-[(3-chloro-4-fluorophenyl)amino]-7-[2-(6,6-dimethyl-2-oxo-morpholin-4-yl)-ethoxy]-6-((S)-tetrahydrofuran-3-yloxy)-quinazoline] came in with a melting point of 202 to 205 °C.

`CC1(C)CN(CCOc2cc3ncnc(Nc4ccc(F)c(Cl)c4)c3cc2OC[C@@H]2CCCO2)CC(=O)O1` [Example 3(31), 4-[(3-chloro-4-fluorophenyl)amino]-7-[2-(6,6-dimethyl-2-oxo-morpholin-4-yl)-ethoxy]-6-[(S)-(tetrahydrofuran-2-yl)methoxy]-quinazoline] yielded a melting point of 182 °C.

The molecule `COc1cc2ncnc(Nc3cccc(Br)c3)c2cc1OCCN1CC(=O)O[C@@H](C)C1` [Example 3, 4-[(3-Bromo-phenyl)amino]-6-[2-((S)-6-methyl-2-oxo-morpholin-4-yl)-ethoxy]-7-methoxy-quinazoline] showed a melting point of 190 °C.

As for `COc1cc2ncnc(Nc3cccc(Br)c3)c2cc1OCCN(CC(=O)OC(C)(C)C)C[C@@H](C)O` [Example 4(1), 4-[(3-Bromo-phenyl)amino]-6-(2-{N-[(tert.butyloxycarbonyl)methyl]-N-((R)-2-hydroxy-propyl)-amino}-ethoxy)-7-methoxy-quinazoline], the melting point stood at 130 °C.

Values taken from patent publication US6656946B2, “Aminoquinazolines which inhibit signal transduction mediated by tyrosine kinases” (Boehringer Ingelheim Pharma KG, priority 2000, dated 2003).
